Where a name gives a salt, the structure may show the parent alone.
Experiments:
[1] = tested on: reconstituted CC-split luciferase in HEK293T cells; assay: CC-split luciferase displacement by externally added synthetic displacer peptide; type: cell-based, human; conditions: for Displacement of cognate peptide from the N8:N7 split luciferase by added synthetic peptide: nLuc:N8 and cLuc:N7, peptide 0–50 µM in DOTAP for 2 h (Fig. S6B)
[2] = tested on: reconstituted CC-split luciferase in HEK293T cells; assay: CC-split luciferase attenuation by co-expressed displacer peptide; type: cell-based, human
[3] = tested on: SARS-CoV-2 S protein-mediated cell–cell fusion; type: cell-based, human
[4] = CD thermal denaturation scans (midpoint Tm); type: physicochemical; conditions: CC of the peptide with N8 compared with N8:N7
Description: CD measurements were performed with a ChiraScan instrument (Applied Photophysics, UK) equipped with a Peltier thermal control block (Melcor, NJ, Laird Technologies). The final concentrations of individual peptides were […] in Tris buffer (50 mM Tris–HCl, pH 7.5, 150 mM NaCl, and 1 mM TCEP). The mixture also contained a 20 μM concentration of each peptide. All experiments were performed in a quartz cuvette (Hellma, Germany) with a path length of 1 mm. CD spectra were measured every 1 nm from 200 to 280 nm with a bandwidth of 1 nm and 0.5 s integration time. The results are the average of three scans. Temperature denaturation scans were performed by measuring the CD signal at 222 nm from 0 to 95 °C in 1 °C increments at a rate of 1 °C/min. The actual sample temperatures were measured directly in the cuvette using a temperature probe. The CD spectrum was measured at 95 °C and at 20 °C after rapid cooling.

[5] = tested on: CC-split transcription factor (TALE-A:CC with CC:VP16) in HEK293T cells; assay: CC-split transcription factor reconstitution and displacement (TALE10x-Pmin-fLuc reporter); type: cell-based, human; conditions: TALE-A:N8 with CC:VP16, displacer plasmid 0-50 or 0–70 ng, 48 h after transfection
[6] = SEC-MALS multimerization state; type: physicochemical; conditions: peptides 200 µM in 50 mM Tris–HCl pH 7.5, 150 mM NaCl, 10% glycerol
Description: A Waters e2695 HPLC system coupled with a 2489 UV detector (Waters, MA) and a Dawn 8 + multiple-angle light scattering detector (Wyatt, CA) was used for SEC-MALS experiments. Peptides (200 μM in 50 mM Tris–HCl with a pH of 7.5, 150 mM NaCl, and 10% glycerol) were filtered using Durapore 0.1 μm centrifuge filters (Merck Millipore, Ireland) before being injected onto the Biosep SEC-S2000 column (Phenomenex, CA), with the exception of the peptide N2, which was injected in a Superdex 30 increase column (GE, IL). The mobile phases used for the separations were 50 mM Tris–HCl, pH 7.5, 150 mM NaCl and 50 mM Tris–HCl, pH 7.5, 500 mM NaCl for the Biosep SEC-S2000 column and the Superdex 30 increase column, respectively. The injection volume was 50 μl, and the flow rate was 0.5 ml/min. Data analysis was carried out with Astra 7.0 software (Wyatt, CA) utilizing the theoretical extinction coefficient calculated by ProtParam.

[7] = molecular target: the molecule itself; assay: SEC-MALS; peptides 200 µM, alone or as equimolar mixture; Biosep SEC-S2000 column; 50 mM Tris-HCl pH 7.5, 150 mM NaCl
[8] = molecular target: T1, N8 (synthetic construct, N-terminal acetylation; C-terminal amidation); assay: ITC
T1 chain: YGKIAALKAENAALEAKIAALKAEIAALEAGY

[9] = molecular target: T2, P8A (synthetic construct, N-terminal acetylation; C-terminal amidation); assay: ITC
T2 chain: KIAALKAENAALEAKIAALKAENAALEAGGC

[10] = molecular target: T3, P8A (N-terminal acetylation; C-terminal amidation); assay: CD thermal denaturation; 20 µM each peptide; CD signal at 222 nm, 0 to 95 °C; 50 mM Tris-HCl pH 7.5, 150 mM NaCl, 1 mM TCEP; midpoint Tm from a thermodynamic model fit; conditions: both partners purified
T3 chain: T2 chain

[11] = molecular target: T4, N6 (synthetic construct, N-terminal acetylation; C-terminal amidation); assay: ITC
T4 chain: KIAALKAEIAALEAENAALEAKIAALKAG

[12] = molecular target: T5, P6A (synthetic construct, N-terminal acetylation; C-terminal amidation); assay: ITC
T5 chain: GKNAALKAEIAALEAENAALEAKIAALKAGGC

[13] = molecular target: T6, P6A (N-terminal acetylation; C-terminal amidation); assay: CD thermal denaturation; 20 µM each peptide; CD signal at 222 nm, 0 to 95 °C; 50 mM Tris-HCl pH 7.5, 150 mM NaCl, 1 mM TCEP; midpoint Tm from a thermodynamic model fit; conditions: both partners purified
T6 chain: T5 chain

Molecule: Y EIAALEA KIAALKA KNAALKA EIAALEA GC [N5]
- Displacement of cLuc:P5 from the N6:P5 split luciferase by added synthetic peptide ([1]; HEK293T, nLuc:N6 and cLuc:P5, […]): effectively displaced cLuc:P5
- N6:P5 split luciferase activity with co-expressed displacer peptide [2]: attenuated N6:P5 split luciferase activity

Molecule: CN(C)C(=O)COC(=O)Cc1ccc(OC(=O)c2ccc(NC(=N)N)cc2)cc1 [Camostat, camostat mesylate]
- Syncytia formation, luciferase activity of mixture of donor and acceptor cells [3]: reduced the amount of formed syncytia

Molecule: SPED EIQALEE KNAQLKQ EIAALEE KNQALKY G [P7, reference compound]
- midpoint Tm of N-P-CCs lower than N-CCs [4]: more than 10 °C
- Displacement of cognate peptide from the N8:N7 split luciferase by added synthetic peptide ([1]; HEK293T): failed to displace the cognate peptide from the N8:N7 split luciferase as efficiently
- Attenuation of CC-split transcription activator assembly by co-expressed NLS-tagged CC-displacer peptide [5]: failed to prevent the reconstitution of a functional transcription as efficiently

Molecule: YG KIAALKA ENAALEA KIAALKA ENAALEA GGC [P8A]
- Multimerization state in solution [6]: monomers

Molecule: YG KNAALKA EIAALEA ENAALEA KIAALKA GGC [P6A]
- Multimerization state in solution [6]: monomers

Molecule: YG ENAALEA KIAALKA KNAALKA EIAALEA GC [P5A]
- Multimerization state in solution [6]: monomers

Molecule: EIQQLEE KNSQLKQ EISQLEE KNQELKY G [P7SN, reference compound]
- midpoint Tm of N-P-CCs lower than N-CCs [4]: more than 10 °C
- Displacement of cognate peptide from the N8:N7 split luciferase by added synthetic peptide ([1]; HEK293T): failed to displace the cognate peptide from the N8:N7 split luciferase as efficiently

Molecule: YG EIAALEA KNAALKA EIAALEA KNAALKA GC [P7A]
- Multimerization state in solution [6]: monomers
- midpoint Tm of N-P-CCs lower than N-CCs [4]: more than 10 °C
- Displacement of cognate peptide from the N8:N7 split luciferase by added synthetic peptide ([1]; HEK293T): failed to displace the cognate peptide from the N8:N7 split luciferase as efficiently
- Attenuation of CC-split transcription activator assembly by co-expressed NLS-tagged CC-displacer peptide [5]: failed to prevent the reconstitution of a functional transcription as efficiently

Molecule: Y EIAALEA KNAALKA EIAALEA KIAALKA GC [N7]
- Luciferase activity of CC-split luciferase after addition of synthetic CC-displacer peptide ([1]; […], peptide in DOTAP for 2 h, 48 h after transfection): debilitated CC-split luciferase assembly most efficiently
- Attenuation of CC-split transcription activator assembly by co-expressed NLS-tagged CC-displacer peptide [5]: weakened the transcription activator assembly most efficiently
- Competition of co-expressed displacer peptide with N8:N7 CC split luciferase ([2]; HEK293T, plasmid expressing displacer 0, 80, 155 ng, 48 h after transfection): failed to effectively compete

Molecule: Ac-YGKIAALKAENAALEAKIAALKAEIAALEAGY-NH2 [N8]
- stoichiometry N [7]: 2

Molecule: Ac-GEIAALEAKNAALKAEIAALEAKIAALKAGY-NH2 [N7]
- stoichiometry N [7]: 2
- Kd [8]: 10 nM

Molecule: Ac-GEIAALEAKNAALKAEIAALEAKNAALKAGC-NH2 [P7A]
- Kd [9]: 19 nM
- Tm [10]: 64 °C

Molecule: Ac-GEIAALEAKIAALKAKNAALKAEIAALEAGY-NH2 [N5]
- stoichiometry N [7]: 2
- Kd [11]: 1 nM

Molecule: Ac-KIAALKAEIAALEAENAALEAKIAALKAG-NH2 [N6]
- stoichiometry N [7]: 2

Molecule: Ac-ENAALEAKIAALKAKNAALKAEIAALEA-NH2 [P5A]
- Kd [12]: 4 nM
- Tm [13]: 57 °C
